In US11952365B2, “Anti-viral compounds” (Aligos Therapeutics, Inc., priority 2020, dated 2024):
Where two headings read alike, the source gives them in different places.

Columns and labels:
[1] = in vitro; conditions: human
[2] = Cytotoxicity plates without OC43 virus (cell-titer-glo); type: cell-based, human; conditions: human; HeLa cells without OC43 virus, class symbols
Outline: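 Run as a virus-free counterpart of the OC43 cytopathic-effect assay. Attached HeLa cells received compound dilutions in EMEM with 2% FBS and were kept 6 days at 33 °C. Cell viability was then measured by CellTiter-Glo luminescence.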

[3] = biological target: T1, human cathepsin L (Homo sapiens, UniProt P07711); test: cathepsin L assay; type: biochemical; conditions: 10 pM human cathepsin L, Z-FR-AMC 2 μM
T1 construct: purchased R&D Systems
Outline: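 Reactions began by adding 2 μM (final) Z-FR-AMC substrate to 10 pM human cathepsin L that had been preincubated 30 min with inhibitor. Kinetic AMC fluorescence at 355/460 nm over 30 min at 2-min intervals; four-parameter fitting gave IC50 values.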

[4] = biological target: HRV3C (Human rhinovirus 14, UniProt P03303); test: HRV3C protease assay (duplex, SAMDI-MS); type: biochemical, HRV; conditions: 30 mins preincubation
Outline: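 Compounds are preincubated 30 min with the protease pair before substrate addition, and cleavage proceeds 30 min at room temperature. Product peptides are measured by SAMDI-MS relative to internal standards, with IC50 obtained from a four-parameter fit.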

[5] = in vitro; conditions: African green monkey, VeroE6 + CP (CC50), Vero E6-eGFP cells with CP-100356, absence of virus, MTS
[6] = test system: SARS-CoV-2-GHB-03021/2020; test: microbe, parasite or virus in culture; type: cell-based; conditions: Severe acute respiratory syndrome coronavirus 2, Vero C1008, 96 h; read-out: VeroE6 + CP (EC50)
[7] = test system: human beta-coronavirus OC43; test: microbe, parasite or virus in culture; type: cell-based; conditions: Betacoronavirus 1, OC43, HeLa, 144 h, OC43 in HeLa cells, 6 days at 33° C., class symbols; read-out: EC50
[8] = biological target: 3CLpro (Severe acute respiratory syndrome coronavirus 2, UniProt P0DTD1); test: SARS-CoV-2 3CLpro protease assay (duplex, SAMDI-MS); type: biochemical; design: For the duplex assay, 3CLpro and HRV3C was added; conditions: 3CLpro, 30 mins preincubation, class symbols; read-out: SARS-Cov-2 IC50
[9] = test system: SARS-CoV-2-GHB-03021/2020; test: SARS-CoV-2 Infection Model in Huh7 Cells; type: cell-based; conditions: Severe acute respiratory syndrome coronavirus 2, Huh-7, 96 h, SARS-CoV-2, day 4 p.i., MTS, class symbols
[10] = HRV3C, class symbols, read-out: HRV IC50
[11] = HRV3C, bound, read-out: HRV IC50

SMILES	CC50 [1]	CC50 at 6 days [2]	IC50 ([3]; class symbols)	IC50 [4, 10]	CC50 ([5]; numeric bounds)	EC50 [6]	EC50 [7]	IC50 [8]	EC50 [9]	IC50 [4, 11]	IC50 ([4]; HRV IC50, HRV3C, bound)	CC50 ([5]; class symbols)	IC50 ([3]; bound)
COc1cccc2[nH]c(C(=O)N3C[C@]4(C[C@H]3C(=O)NC(C[C@@H]3CCCNC3=O)C(=O)C(=O)NC3CC3)CC4(F)F)cc12 (stereo partly drawn) [Compound 38, N-cyclopropyl-3-{[(3S,6S)-1,1-difluoro-5-(4-methoxy-1H-indole-2-carbonyl)-5-azaspiro[2.4]heptan-6-yl]formamido}-2-oxo-4-[(3S)-2-oxopiperidin-3-yl]butanamide]	> 100 µM	> 10 µM	< 0.1 µM	0.2 to 2 µM	> 100 µM	1 to 10 µM	100 to 1000 nM	20 to 200 nM	1 to 10 µM				
COc1cccc2[nH]c(C(=O)N3C[C@]4(C[C@H]3C(=O)N[C@@H](C[C@@H]3CCNC3=O)C(=O)CO)CC4(F)F)cc12 [Compound 39]	> 100 µM	> 10 µM	≥ 10 µM		> 100 µM	1 to 10 µM	100 to 1000 nM	20 to 200 nM	1 to 10 µM	> 10 µM			
O=C(NCc1ccccc1)C(=O)C(C[C@@H]1CCNC1=O)NC(=O)[C@@H]1C[C@@H](C2CC2)CN1C(=O)c1cc2ccccc2[nH]1 (stereo partly drawn) [Compound 40, N-benzyl-3-{[(2S,4S)-4-cyclopropyl-1-(1H-indole-2-carbonyl)pyrrolidin-2-yl]formamido}-2-oxo-4-[(3S)-2-oxopyrrolidin-3-yl]butanamide]	> 10 µM	> 10 µM	0.1 to 1 µM	0.2 to 2 µM	> 100 µM	1 to 10 µM	100 to 1000 nM	200 to 2000 nM	1 to 10 µM				
COc1cccc2[nH]c(C(=O)N3CC4(CC4)C[C@H]3C(=O)N[C@@H](C[C@@H]3CCCNC3=O)C(=O)CO)cc12 [Compound 42, (S)—N—((S)-4-hydroxy-3-oxo-1-((S)-2-oxopiperidin-3-yl)butan-2-yl)-5-(4-methoxy-1H-indole-2-carbonyl)-5-azaspiro[2.4]heptane-6-carboxamide]	> 100 µM	> 10 µM	≥ 10 µM	2 to 20 µM	> 100 µM	1 to 10 µM	100 to 1000 nM	20 to 200 nM	1 to 10 µM				
COc1cccc2[nH]c(C(=O)N3C[C@H]4[C@@H]([C@H]3C(=O)N[C@@H](C[C@@H]3CCNC3=O)C(=O)CO)C4(C)C)cc12 [Compound 43]	> 100 µM	> 10 µM	≥ 10 µM		> 100 µM	1 to 10 µM	100 to 1000 nM	20 to 200 nM	1 to 10 µM		> 10 µM		
COc1cccc2[nH]c(C(=O)N3CCC4(CC4)C[C@H]3C(=O)N[C@@H](C[C@@H]3CCCNC3=O)C(=O)CO)cc12 [Compound 44]	> 10 µM	> 10 µM	≥ 10 µM		> 100 µM	10 to 100 µM	1000 to 10000 nM	20 to 200 nM	10 to 100 µM		> 10 µM		
COc1cccc2[nH]c(C(=O)N3C[C@H](C(F)(F)F)C[C@H]3C(=O)N[C@@H](C[C@@H]3CCCNC3=O)C(=O)COCc3ccccc3)cc12 [Compound 45A]	> 10 µM	> 10 µM	≥ 10 µM	2 to 20 µM		1 to 10 µM	100 to 1000 nM	20 to 200 nM	1 to 10 µM			> 10 µM	
COc1cccc2[nH]c(C(=O)N3C[C@H](C(F)(F)F)C[C@H]3C(=O)N[C@@H](C[C@@H]3CCCNC3=O)C(=O)CO)cc12 [Compound 45]	> 100 µM	> 10 µM	≥ 10 µM	2 to 20 µM	> 100 µM	< 1 µM	100 to 1000 nM	20 to 200 nM	1 to 10 µM				
COc1cccc2[nH]c(C(=O)N3C[C@]4(C[C@H]3C(=O)NC(C[C@@H]3CCCNC3=O)C(=O)C(N)=O)CC4(F)F)cc12 (stereo partly drawn) [Compound 46, (3S,6S)—N-(4-amino-3,4-dioxo-1-((S)-2-oxopiperidin-3-yl)butan-2-yl)-1,1-difluoro-5-(4-methoxy-1H-indole-2-carbonyl)-5-azaspiro[2.4]heptane-6-carboxamide]	> 10 µM	> 10 µM	1 to 10 µM	0.2 to 2 µM	> 100 µM	10 to 100 µM	10000 to 100000 nM	20 to 200 nM	10 to 100 µM				
COc1cccc2[nH]c(C(=O)N3C[C@]4(C[C@H]3C(=O)N[C@@H](C[C@@H]3CCCNC3=O)C(=O)CO)CC4(F)F)cc12 [Compound 47, (3S,6S)-1,1-difluoro-N-[(2S)-4-hydroxy-3-oxo-1-[(3S)-2-oxopiperidin-3-yl]butan-2-yl]-5-(4-methoxy-1H-indole-2-carbonyl)-5-azaspiro[2.4]heptane-6-carboxamide]	> 100 µM	> 10 µM	≥ 10 µM	2 to 20 µM	> 100 µM	1 to 10 µM	100 to 1000 nM	20 to 200 nM	1 to 10 µM				
COc1cccc2[nH]c(C(=O)N3C[C@]4(C[C@H]3C(=O)N[C@@H](C[C@@H]3CCCNC3=O)C(=O)COCc3ccccc3)CC4(F)F)cc12 [Compound 47A, (3S,6S)—N-[(2S)-4-(benzyloxy)-3-oxo-1-[(3S)-2-oxopiperidin-3-yl]butan-2-yl]-1,1-difluoro-5-(4-methoxy-1H-indole-2-carbonyl)-5-azaspiro[2.4]heptane-6-carboxamide]	> 10 µM	> 10 µM	≥ 10 µM	2 to 20 µM	> 100 µM	1 to 10 µM	< 100 nM	20 to 200 nM	1 to 10 µM				
CC(C)[C@@H]1C[C@@H](C(=O)NC(C[C@@H]2CCNC2=O)C(=O)C(=O)NCc2ccccc2)N(C(=O)c2cc3ccccc3[nH]2)C1 (stereo partly drawn) [Compound 48, N-benzyl-3-{[(2S,4S)-1-(1H-indole-2-carbonyl)-4-isopropylpyrrolidin-2-yl]formamido}-2-oxo-4-[(3S)-2-oxopyrrolidin-3-yl]butanamide]	> 10 µM	> 10 µM	0.1 to 1 µM	2 to 20 µM	> 100 µM	1 to 10 µM	100 to 1000 nM	200 to 2000 nM	1 to 10 µM				
COc1cccc2[nH]c(C(=O)N3C[C@H]4[C@@H]([C@H]3C(=O)N[C@@H](C[C@@H]3CCCNC3=O)C(=O)CO)C4(C)C)cc12 [Compound 49, (1R,2S,5S)—N-[(2S)-4-hydroxy-3-oxo-1-[(3S)-2-oxopiperidin-3-yl]butan-2-yl]-3-(4-methoxy-1H-indole-2-carbonyl)-6,6-dimethyl-3-azabicyclo[3.1.0]hexane-2-carboxamide]	> 100 µM	> 10 µM			> 100 µM	1 to 10 µM	100 to 1000 nM	< 20 nM	1 to 10 µM	> 10 µM			> 3.3 µM
COc1cccc2[nH]c(C(=O)N3C[C@H]4[C@@H]([C@H]3C(=O)N[C@@H](C[C@@H]3CCCNC3=O)C(=O)COCc3ccccc3)C4(C)C)cc12 [Compound 49A, (1R,2S,5S)—N-[(2S)-4-(benzyloxy)-3-oxo-1-[(3S)-2-oxopiperidin-3-yl]butan-2-yl]-3-(4-methoxy-1H-indole-2-carbonyl)-6,6-dimethyl-3-azabicyclo[3.1.0]hexane-2-carboxamide]	> 10 µM	> 10 µM	≥ 10 µM			1 to 10 µM	100 to 1000 nM	20 to 200 nM	1 to 10 µM	> 10 µM		> 10 µM	
COc1cccc2[nH]c(C(=O)N3C[C@@H]4CCC[C@@H]4[C@H]3C(=O)N[C@@H](C[C@@H]3CCNC3=O)C(=O)c3nc4ccccc4s3)cc12 [Compound 50, (1S,3aR,6aS)—N-[(2S)-1-(1,3-benzothiazol-2-yl)-1-oxo-3-[(3S)-2-oxopyrrolidin-3-yl]propan-2-yl]-2-(4-methoxy-1H-indole-2-carbonyl)-hexahydro-1H-cyclopenta[c]pyrrole-1-carboxamide]	> 10 µM	> 10 µM	≥ 10 µM		> 100 µM	1 to 10 µM	100 to 1000 nM	20 to 200 nM	1 to 10 µM	> 10 µM			
